Reference: US8648066B2 (Exelixis, Inc., priority 2009, dated 2014)
pIC50: −log10 of the molar value.

Target: mTOR/GbL/Raptor (mTORC1) (Homo sapiens, UniProt P42345)
Assay: mTOR/GbL/Raptor (mTORC1) ELISA assay
Format: biochemical
Details: phosphorylation of 4E-BP1; 0.2 nM mTORC1, 10 μM ATP; read-out: IC50 in this assay (mTORC1 ELISA)
Method in brief: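 ELISA read-out: phospho-4E-BP1 captured on Ni-chelate plates and detected with anti-phospho antibody plus HRP-anti-IgG luminescence. The kinase step ran 120 min at ambient temperature with 0.2 nM human mTORC1, 10 µM ATP, 50 nM His-4E-BP1, 10 mM MnCl2, pH 7.2 HEPES.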

SMILES	pIC50
CCNc1nc2ccc(-c3ccc4c(c3)CN(c3cc(C)nc5ccccc35)CCO4)cc2[nH]1 [Example 246, N-ethyl-6-[4-(2-methylquinolin-4-yl)-2,3,4,5-tetrahydro-1,4-benzoxazepin-7-yl]-1H-benzimidazol-2-amine]	6.60 to 7.30
CC1(C)CCc2ncnc(N3CCOc4ccc(-c5cnc(F)c(NS(C)(=O)=O)c5)cc4C3)c2C1 [Example 632, N-{5-[4-(6,6-dimethyl-5,6,7,8-tetrahydroquinazolin-4-yl)-2,3,4,5-tetrahydro-1,4-benzoxazepin-7-yl]-2-fluoropyridin-3-yl}methanesulfonamide]	6.00 to 6.60
CCN(CC)Cc1nc2c(c(N3CCOc4ccc(-c5cnc6nc(C)[nH]c6c5)cc4C3)n1)CC(C)(C)CC2 [Example 602, N-({6,6-dimethyl-4-[7-(2-methyl-1H-imidazo[4,5-b]pyridin-6-yl)-2,3-dihydro-1,4-benzoxazepin-4(5H)-yl]-5,6,7,8-tetrahydroquinazolin-2-yl}methyl)-N-ethylethanamine]	7.30 to 8.00
Cc1nc2ccc(-c3ccc4c(c3)CN(c3ccnc5cc(C#N)ccc35)CCO4)cc2[nH]1 [Example 242, 4-[7-(2-methyl-1H-benzimidazol-6-yl)-2,3-dihydro-1,4-benzoxazepin-4(5H)-yl]quinolin-7-carbonitrile]	≤ 5.70
COc1ccc2c(N3CCOc4ccc(-c5cnc(NC(C)=O)s5)cc4C3)nc(C)nc2c1 [Example 293, N-(5-{4-[2-methyl-7-(methyloxy)quinazolin-4-yl]-2,3,4,5-tetrahydro-1,4-benzoxazepin-7-yl}-1,3-thiazol-2-yl)acetamide]	≤ 5.70
CCNc1nc2ccc(-c3ccc4c(c3)CN(c3cc(Nc5ccccc5)ncn3)CCO4)cc2[nH]1 [Example 275, N-ethyl-6-{4-[6-(phenylamino)pyrimidin-4-yl]-2,3,4,5-tetrahydro-1,4-benzoxazepin-7-yl}-1H-benzimidazol-2-amine]	6.60 to 7.30
Cc1nc2ncc(-c3ccc4c(c3)CN(c3nc(-c5ccccn5)nc5c3CC(C)(C)CC5)CCO4)cc2[nH]1 [Example 473, 4-(6,6-dimethyl-2-pyridin-2-yl-5,6,7,8-tetrahydroquinazolin-4-yl)-7-(2-methyl-1H-imidazo[4,5-b]pyridin-6-yl)-2,3,4,5-tetrahydro-1,4-benzoxazepine]	7.30 to 8.00
c1ccc2c(N3CCOc4ccc(-c5ccc6nc(C7CCCCC7)[nH]c6c5)cc4C3)ccnc2c1 [Example 200, 7-(2-cyclohexyl-1H-benzimidazol-6-yl)-4-quinolin-4-yl-2,3,4,5-tetrahydro-1,4-benzoxazepine]	5.70 to 6.00
Cc1c(NCCC2CCCN2C)ncnc1N1CCOc2ccc(-c3cnc4nc(C5CC5)[nH]c4c3)cc2C1 (stereo not shown) [Example 534, 6-[7-(2-cyclopropyl-1H-imidazo[4,5-b]pyridin-6-yl)-2,3-dihydro-1,4-benzoxazepin-4(5H)-yl]-5-methyl-N-[2-(1-methylpyrrolidin-2-yl)ethyl]pyrimidin-4-amine]	5.70 to 6.00
Cc1nc2ncc(-c3ccc4c(c3)CN(c3ncnc5c3CCC(C)(c3ccccc3)C5)CCO4)cc2[nH]1 (stereo not shown) [Example 558, 7-(2-methyl-1H-imidazo[4,5-b]pyridin-6-yl)-4-(7-methyl-7-phenyl-5,6,7,8-tetrahydroquinazolin-4-yl)-2,3,4,5-tetrahydro-1,4-benzoxazepine]	≥ 8.00
CN1CC[C@H](CNS(=O)(=O)c2cc(-c3ccc4c(c3)CN(c3ncnc5c3CC(C)(C)CC5)CCO4)cnc2N)C1 [Example 394, 2-amino-5-[4-(6,6-dimethyl-5,6,7,8-tetrahydroquinazolin-4-yl)-2,3,4,5-tetrahydro-1,4-benzoxazepin-7-yl]-N-{[(3S)-1-methylpyrrolidin-3-yl]methyl}pyridine-3-sulfonamide]	6.60 to 7.30
CCNCc1nc2c(c(N3CCOc4ccc(-c5ccc6nc(C)[nH]c6c5)cc4C3)n1)CC(C)(C)CC2 [Example 589, N-({6,6-dimethyl-4-[7-(2-methyl-1H-benzimidazol-6-yl)-2,3-dihydro-1,4-benzoxazepin-4(5H)-yl]-5,6,7,8-tetrahydroquinazolin-2-yl}methyl)ethanamine]	≥ 8.00
Cc1ncnc(N2CCOc3ccc(-c4cnc(N)nc4)cc3C2)c1Cc1ccc(F)cc1 [Example 153, 5-(4-{5-[(4-fluorophenyl)methyl]-6-methylpyrimidin-4-yl}-2,3,4,5-tetrahydro-1,4-benzoxazepin-7-yl)pyrimidin-2-amine]	≥ 8.00
CC1(C)CCc2ncnc(N3CCOc4ccc(-c5cnc(N)c(S(=O)(=O)NCC6(N)CC6)c5)cc4C3)c2C1 [Example 418, 2-amino-N-[(1-aminocyclopropyl)methyl]-5-[4-(6,6-dimethyl-5,6,7,8-tetrahydroquinazolin-4-yl)-2,3,4,5-tetrahydro-1,4-benzoxazepin-7-yl]pyridine-3-sulfonamide]	7.30 to 8.00
Cc1nc2ccc(-c3ccc4c(c3)CN(c3ncnc5cc(C(F)(F)F)ccc35)CCO4)cc2[nH]1 [Example 36, 7-(2-methyl-1H-benzimidazol-6-yl)-4-[7-(trifluoromethyl)quinazolin-4-yl]-2,3,4,5-tetrahydro-1,4-benzoxazepine]	6.60 to 7.30
Nc1nc2ncc(-c3ccc4c(c3)CN(c3ncnc5ccc(I)cc35)CCO4)cc2[nH]1 [Example 183, 6-[4-(6-iodoquinazolin-4-yl)-2,3,4,5-tetrahydro-1,4-benzoxazepin-7-yl]-1H-imidazo[4,5-b]pyridin-2-amine]	≥ 8.00
CC1(C)CCc2ncnc(N3CCOc4ccc(-c5cnc(N)c(S(=O)(=O)NC(C)(C)CO)c5)cc4C3)c2C1 [Example 367, 2-amino-5-[4-(6,6-dimethyl-5,6,7,8-tetrahydroquinazolin-4-yl)-2,3,4,5-tetrahydro-1,4-benzoxazepin-7-yl]-N-(2-hydroxy-1,1-dimethylethyl)pyridine-3-sulfonamide]	7.30 to 8.00
COc1ccc(-c2ccc3c(c2)CN(c2nc(CN(C)C)nc(C)c2C(C)C)CCO3)cc1NS(C)(=O)=O [Example 656, N-[5-(4-{2-[(dimethylamino)methyl]-6-methyl-5-(1-methylethyl)pyrimidin-4-yl}-2,3,4,5-tetrahydro-1,4-benzoxazepin-7-yl)-2-(methyloxy)phenyl]methane-sulfonamide]	6.00 to 6.60
COc1ccc2c(N3CCOc4ccc(-c5ccc(N)nc5)cc4C3)nc(C)nc2c1 [Example 273, 5-{4-[2-methyl-7-(methyloxy)quinazolin-4-yl]-2,3,4,5-tetrahydro-1,4-benzoxazepin-7-yl}pyridin-2-amine]	6.00 to 6.60
Cc1nc2ncc(-c3ccc4c(c3)CN(c3ncnc5c3CC(C)(C)CC5)CCO4)cc2[nH]1 [Example 234, 4-(6,6-dimethyl-5,6,7,8-tetrahydroquinazolin-4-yl)-7-(2-methyl-1H-imidazo[4,5-b]pyridin-6-yl)-2,3,4,5-tetrahydro-1,4-benzoxazepine]	≥ 8.00
CC1(C)CCc2ncnc(N3CCOc4ccc(-c5cnc(N)c(S(=O)(=O)NCCCN)c5)cc4C3)c2C1 [Example 414, 2-amino-N-(3-aminopropyl)-5-[4-(6,6-dimethyl-5,6,7,8-tetrahydroquinazolin-4-yl)-2,3,4,5-tetrahydro-1,4-benzoxazepin-7-yl]pyridine-3-sulfonamide]	7.30 to 8.00
CC1(C)CCc2ncnc(N3CCOc4ccc(-c5cncc(NS(C)(=O)=O)c5)cc4C3)c2C1 [Example 634, N-{5-[4-(6,6-dimethyl-5,6,7,8-tetrahydroquinazolin-4-yl)-2,3,4,5-tetrahydro-1,4-benzoxazepin-7-yl]pyridin-3-yl}methanesulfonamide]	6.00 to 6.60
